Results as given in patent US20020137929A1, “1 - (3-heterocyclylphenyl) isothiourea, -isourea, -guanidine and -amidine herbicidal agents” (Intellectual Property Department, BASF Aktiengesellschaft, priority 1998, published 2002).

Columns and labels:
CYPSE (Flatsedge) = experiment: Postemergence weed control under flooded paddy conditions; assay type: in vivo, Cyperus serotinus; details: postemergence weeds, 3-4 weeks after treatment
Summary of the method: (§1)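 Flood-water application, about 0.0313–0.500 kg/ha a.i. in aqueous/acetone 50/50 v/v; water depth 1.5–3 cm throughout. Weeds 3–5 cm, rice 1.5–2.5 leaf. Greenhouse; 0–9 visual rating vs control at 3–4 wk.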

ABUTH (Velvetleaf) [1] = experiment: Preemergence herbicidal evaluation; assay type: in vivo, Abutilon theophrasti; details: rated 4-5 weeks after treatment
Summary of the method: (§2)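 Scores use a 0–9 visual scale covering stand, vigor, malformation, size and chlorosis relative to controls, rated four to five weeks after treatment. Before emergence, soil-planted seeds were sprayed with compound in aqueous acetone at roughly 0.0156–0.500 kg/ha and held in the greenhouse.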

[2] = test system: CHEAL (Lambsquarters, Common); experiment: Preemergence herbicidal evaluation; assay type: in vivo, Chenopodium album; details: rated 4-5 weeks after treatment
Summary of the method: as §2

[3] = test system: IPOHE (Morningglory, Ivyleaf); experiment: Postemergence herbicidal evaluation; assay type: in vivo, Ipomoea hederacea
Summary of the method: (§3)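 Visual 0-9 injury score (stand, vigor, malformation, size, chlorosis, appearance vs untreated) taken four to five weeks post-spray, averaged across repeat tests. Test plants about two weeks old; foliar spray of acetone/water (1:1) with 0.5% surfactant delivering ~0.0156-0.500 kg active/ha.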

[4] = test system: TRZAWR (Wheat, Winter, cv Riband); experiment: Preemergence herbicidal evaluation; assay type: in vivo, Triticum aestivum; details: rated 4-5 weeks after treatment
Summary of the method: as §2

ECHCG (Barnyardgrass) [5] = experiment: Postemergence herbicidal evaluation; assay type: in vivo, Echinochloa crus-galli
Summary of the method: as §3

ZEAMX (Corn, Field) [6] = experiment: Preemergence herbicidal evaluation; assay type: in vivo, Zea mays; details: rated 4-5 weeks after treatment
Summary of the method: as §2

CYPIR (Rice Flatsedge) = experiment: Postemergence weed control under flooded paddy conditions; assay type: in vivo, Cyperus iria; details: postemergence weeds, 3-4 weeks after treatment
Summary of the method: as §1

ZEAMX (Corn, Field) [7] = experiment: Postemergence herbicidal evaluation; assay type: in vivo, Zea mays
Summary of the method: as §3

CASOB (Sicklepod) = experiment: Preemergence herbicidal evaluation; assay type: in vivo, Cassia obtusifolia; details: rated 4-5 weeks after treatment
Summary of the method: as §2

[8] = test system: GLXMAW (Soybean, Williams); experiment: Preemergence herbicidal evaluation; assay type: in vivo, Glycine max, (L.) Merr. cv Williams; details: rated 4-5 weeks after treatment
Summary of the method: as §2

ABUTH (Velvetleaf) [9] = experiment: Postemergence herbicidal evaluation; assay type: in vivo, Abutilon theophrasti
Summary of the method: as §3

ORYSAT (Rice, Tebonnet) = experiment: Postemergence herbicidal evaluation; assay type: in vivo, Oryza sativa, (L.) Tebonnet
Summary of the method: as §3

SETVI (Foxtail, Green) = experiment: Postemergence herbicidal evaluation; assay type: in vivo, Setaria viridis
Summary of the method: as §3

[10] = test system: IPOHE (Morningglory, Ivyleaf); experiment: Preemergence herbicidal evaluation; assay type: in vivo, Ipomoea hederacea; details: rated 4-5 weeks after treatment
Summary of the method: as §2

[11] = test system: CHEAL (Lambsquarters, Common); experiment: Postemergence herbicidal evaluation; assay type: in vivo, Chenopodium album
Summary of the method: as §3

ECHCG (Barnyardgrass) [12] = experiment: Preemergence herbicidal evaluation; assay type: in vivo, Echinochloa crus-galli; details: rated 4-5 weeks after treatment
Summary of the method: as §2

CCOC(=O)CCN1C(=O)CSC1=Nc1cc(-n2c(=O)cc(C(F)(F)F)n(C)c2=O)c(Cl)cc1Cl [Compound 32, Ethyl 2-{{2,4-dichloro-5-[3,6-dihydro-3-methyl-2,6-dioxo-4-(trifluoromethyl)-1(2H)-pyrimidinyl]-phenyl}imino}-4-oxo-3-thiazolidinepropionate]
0.5: Preemergence herbicidal rating ZEAMX (ZEAMX (Corn, Field) [6]; rate 0.1250 kg/ha) | Preemergence herbicidal rating CASOB (CASOB (Sicklepod); rate 0.0156 kg/ha) | Preemergence herbicidal rating GLXMAW ([8]; rate 0.0313 kg/ha) | Preemergence herbicidal rating GLXMAW ([8]; rate 0.0625 kg/ha) | Preemergence herbicidal rating GLXMAW ([8]; rate 0.1250 kg/ha) | Preemergence herbicidal rating IPOHE ([10]; rate 0.0625 kg/ha) | Preemergence herbicidal rating IPOHE ([10]; rate 0.1250 kg/ha) | Preemergence herbicidal rating ECHCG (ECHCG (Barnyardgrass) [12]; rate 0.1250 kg/ha)
4.0: Postemergence herbicidal rating ZEAMX (ZEAMX (Corn, Field) [7]; Rate 0.0158 kg/ha)
5.0: Postemergence herbicidal rating ABUTH (ABUTH (Velvetleaf) [9]; Rate 0.0158 kg/ha)
3.0: Preemergence herbicidal rating TRZAWR ([4]; rate 0.5000 kg/ha) | Preemergence herbicidal rating GLXMAW ([8]; rate 0.5000 kg/ha) | Postemergence herbicidal rating ORYSAT (ORYSAT (Rice, Tebonnet); Rate 0.0625 kg/ha) | Postemergence herbicidal rating CHEAL ([11]; Rate 0.0158 kg/ha)
1.0: Preemergence herbicidal rating TRZAWR ([4]; rate 0.2500 kg/ha) | Preemergence herbicidal rating GLXMAW ([8]; rate 0.2500 kg/ha) | Postemergence herbicidal rating ORYSAT (ORYSAT (Rice, Tebonnet); Rate 0.0158 kg/ha) | Preemergence herbicidal rating IPOHE ([10]; rate 0.5000 kg/ha) | Preemergence herbicidal rating ECHCG (ECHCG (Barnyardgrass) [12]; rate 0.5000 kg/ha)
2.0: Postemergence herbicidal rating ECHCG (ECHCG (Barnyardgrass) [5]; Rate 0.1250 kg/ha) | Postemergence herbicidal rating ORYSAT (ORYSAT (Rice, Tebonnet); Rate 0.0313 kg/ha) | Postemergence herbicidal rating CHEAL ([11]; Rate 0.0625 kg/ha)
0.0: Herbicidal rating CYPSE (CYPSE (Flatsedge); rate 0.1250 kg/ha) | Herbicidal rating CYPSE (CYPSE (Flatsedge); rate 0.2500 kg/ha) | Preemergence herbicidal rating ABUTH (ABUTH (Velvetleaf) [1]; rate 0.0156 kg/ha) | Preemergence herbicidal rating TRZAWR ([4]; rate 0.0156 kg/ha) | Preemergence herbicidal rating TRZAWR ([4]; rate 0.0313 kg/ha) | Preemergence herbicidal rating TRZAWR ([4]; rate 0.0625 kg/ha) | Preemergence herbicidal rating TRZAWR ([4]; rate 0.1250 kg/ha) | Postemergence herbicidal rating ECHCG (ECHCG (Barnyardgrass) [5]; Rate 0.0158 kg/ha) | Postemergence herbicidal rating ECHCG (ECHCG (Barnyardgrass) [5]; Rate 0.0313 kg/ha) | Postemergence herbicidal rating ECHCG (ECHCG (Barnyardgrass) [5]; Rate 0.0625 kg/ha) | Preemergence herbicidal rating ZEAMX (ZEAMX (Corn, Field) [6]; rate 0.0156 kg/ha) | Preemergence herbicidal rating ZEAMX (ZEAMX (Corn, Field) [6]; rate 0.0313 kg/ha) | Preemergence herbicidal rating ZEAMX (ZEAMX (Corn, Field) [6]; rate 0.0625 kg/ha) | Herbicidal rating CYPIR (CYPIR (Rice Flatsedge); rate 0.1250 kg/ha) | Herbicidal rating CYPIR (CYPIR (Rice Flatsedge); rate 0.2500 kg/ha) | Preemergence herbicidal rating CASOB (CASOB (Sicklepod); rate 0.0313 kg/ha) | Preemergence herbicidal rating CASOB (CASOB (Sicklepod); rate 0.0625 kg/ha) | Preemergence herbicidal rating CASOB (CASOB (Sicklepod); rate 0.1250 kg/ha) | Preemergence herbicidal rating CASOB (CASOB (Sicklepod); rate 0.2500 kg/ha) | Preemergence herbicidal rating CASOB (CASOB (Sicklepod); rate 0.5000 kg/ha) | Preemergence herbicidal rating GLXMAW ([8]; rate 0.0156 kg/ha) | Postemergence herbicidal rating SETVI (SETVI (Foxtail, Green); Rate 0.0158 kg/ha) | Postemergence herbicidal rating SETVI (SETVI (Foxtail, Green); Rate 0.0313 kg/ha) | Postemergence herbicidal rating SETVI (SETVI (Foxtail, Green); Rate 0.0625 kg/ha) | Preemergence herbicidal rating IPOHE ([10]; rate 0.0156 kg/ha) | Preemergence herbicidal rating IPOHE ([10]; rate 0.0313 kg/ha) | Preemergence herbicidal rating IPOHE ([10]; rate 0.2500 kg/ha) | Postemergence herbicidal rating CHEAL ([11]; Rate 0.0313 kg/ha) | Preemergence herbicidal rating ECHCG (ECHCG (Barnyardgrass) [12]; rate 0.0156 kg/ha) | Preemergence herbicidal rating ECHCG (ECHCG (Barnyardgrass) [12]; rate 0.0313 kg/ha) | Preemergence herbicidal rating ECHCG (ECHCG (Barnyardgrass) [12]; rate 0.0625 kg/ha) | Preemergence herbicidal rating ECHCG (ECHCG (Barnyardgrass) [12]; rate 0.2500 kg/ha)
3.5: Postemergence herbicidal rating ORYSAT (ORYSAT (Rice, Tebonnet); Rate 0.1250 kg/ha)
6.0: Preemergence herbicidal rating ZEAMX (ZEAMX (Corn, Field) [6]; rate 0.5000 kg/ha) | Postemergence herbicidal rating ZEAMX (ZEAMX (Corn, Field) [7]; Rate 0.0313 kg/ha) | Postemergence herbicidal rating CHEAL ([11]; Rate 0.1250 kg/ha)
2.5: Preemergence herbicidal rating ABUTH (ABUTH (Velvetleaf) [1]; rate 0.0313 kg/ha)
9.0: Preemergence herbicidal rating ABUTH (ABUTH (Velvetleaf) [1]; rate 0.1250 kg/ha) | Preemergence herbicidal rating ABUTH (ABUTH (Velvetleaf) [1]; rate 0.2500 kg/ha) | Preemergence herbicidal rating ABUTH (ABUTH (Velvetleaf) [1]; rate 0.5000 kg/ha) | Preemergence herbicidal rating CHEAL ([2]; rate 0.0625 kg/ha) | Preemergence herbicidal rating CHEAL ([2]; rate 0.1250 kg/ha) | Preemergence herbicidal rating CHEAL ([2]; rate 0.2500 kg/ha) | Preemergence herbicidal rating CHEAL ([2]; rate 0.5000 kg/ha) | Postemergence herbicidal rating IPOHE ([3]; Rate 0.0158 kg/ha) | Postemergence herbicidal rating IPOHE ([3]; Rate 0.0313 kg/ha) | Postemergence herbicidal rating IPOHE ([3]; Rate 0.0625 kg/ha) | Postemergence herbicidal rating IPOHE ([3]; Rate 0.1250 kg/ha) | Postemergence herbicidal rating ABUTH (ABUTH (Velvetleaf) [9]; Rate 0.0313 kg/ha) | Postemergence herbicidal rating ABUTH (ABUTH (Velvetleaf) [9]; Rate 0.0625 kg/ha) | Postemergence herbicidal rating ABUTH (ABUTH (Velvetleaf) [9]; Rate 0.1250 kg/ha)
7.0: Postemergence herbicidal rating ZEAMX (ZEAMX (Corn, Field) [7]; Rate 0.0625 kg/ha) | Postemergence herbicidal rating ZEAMX (ZEAMX (Corn, Field) [7]; Rate 0.1250 kg/ha) | Postemergence herbicidal rating SETVI (SETVI (Foxtail, Green); Rate 0.1250 kg/ha)
1.5: Preemergence herbicidal rating ABUTH (ABUTH (Velvetleaf) [1]; rate 0.0625 kg/ha)
4.5: Preemergence herbicidal rating CHEAL ([2]; rate 0.0156 kg/ha) | Preemergence herbicidal rating CHEAL ([2]; rate 0.0313 kg/ha) | Preemergence herbicidal rating ZEAMX (ZEAMX (Corn, Field) [6]; rate 0.2500 kg/ha)
